“Also recorded” adds a separate entry of the source.
How the values were obtained:
[1] = tested on: rats following ligation of spinal nerves; conditions: cited from earlier work
[2] = tested on: models of inflammatory pain in rodents; conditions: systemic delivery; cited from earlier work
preclinical animal model = preclinical animal model studies, cardiovascular effects; assay type: in vivo
healthy human subjects [3] = experiment: phase 1a single ascending dose clinical trial; assay type: in vivo
Method: A phase 1a randomized, double-blind, placebo-controlled single ascending dose clinical trial was performed in 56 healthy human subjects to assess the safety, tolerability, and pharmacokinetics of APD371 (Compound B). Doses of 10 mg, 20 mg, 30 mg, 60 mg, 120 mg, 250 mg, and 400 mg were administered. Subjects were in the clinic for approximately 9 days (referred to as Day −2 to Day 7). Study medication (APD371 or placebo) was administered on Day 1. Each cohort included eight human subjects, six of whom were administered APD371 and two of whom were administered placebo.
(§1) Vital signs were measured for blood pressure and heart rate in the supine position after resting for five minutes. 12-lead electrocardiograms were used to measure RR, PR, QRS, QT, QTc, QTcB, and QTcF in the recumbent position after resting for 10 minutes. 5-lead electrocardiograms were used for continuous telemetry, with measurements taken during the last five minutes of a resting period of 14 minutes±1 minute in the supine position. Baseline measurements were taken prior to dosing.

[4] = tested on: osteoarthritis pain model; experiment: osteoarthritis pain model; assay type: in vivo
[5] = tested on: paclitaxel-induced neuropathic pain model; experiment: paclitaxel-induced neuropathic pain model; conditions: in vivo
CB2 receptor [6] = target: T1, CB2 receptor (Homo sapiens, UniProt P34972); experiment: internalization of the CB2 receptor in a cell; assay type: cell-based
Text: In some embodiments, the selective CB2 receptor agonist increases internalization of the CB2 receptor in a cell to at least 75%, at least 80%, at least 85%, at least 90%, at least 95%, at least 96%, at least 97%, at least 98%, or at least about 99% the level of internalization that would occur if the cell were contacted with CP55,940. In some embodiments, the CB2 receptor agonist that increases internalization of the CB2 receptor to at least 90% of CP55,940 is selected from: Compound B, Compound E, Compound G, and Compound H. CP55,940 has the following chemical structure: […]
(§2) Receptor internalization can be measured using a number of methods, including but not limited to measuring a loss of labeled receptor from the cell surface (e.g., using flow cytometry) measuring the appearance of receptors internalized in the cell (e.g., in characteristic punctate intracellular vesicles), and/or measuring the return of receptors recycled to the cell surface. For example, the number, density, and/or staining intensity of granules in the cell can be quantified. Receptor internalization can be measured using any appropriate method known to those of skill in the art. […]

rat CB2 receptor = rat CB2 receptor (Rattus norvegicus, UniProt Q9QZN9); experiment: CB2 receptor internalization efficacy relative to CP55,940; assay type: cell-based
Text: (§3) In certain instances, the CB2 receptor agonist compounds identified using the HTRF® assay, the PathHunter-arrestin assay, and the radioligand binding assay can be tested for CB2 receptor internalization to select those agonists that induce robust internalization of the receptor in order to maintain a sufficient level of signaling for sustained in vivo efficacy. In certain embodiments, such agonists are preferred in the methods described herein.
as §2

CB2 receptor [7] = target: T1, CB2 receptor; experiment: as above; assay type: cell-based
Text: as §3, §2

[8] = tested on: painful peripheral diabetic neuropathy model; experiment: painful peripheral diabetic neuropathy model; conditions: in vivo
healthy human subjects [9] = experiment: phase 1b multiple ascending dose clinical trial; assay type: in vivo
Method: A phase 1b randomized, double-blind, placebo-controlled multiple ascending dose clinical trial was performed in 36 healthy human subjects to assess the safety, tolerability, and pharmacokinetics of APD371 (Compound B). Doses of 50 mg three times daily (TID), 100 mg TID, and 200 mg TID were administered for 10 days. Subjects were in the clinic for approximately 17 days (referred to as Day −2 to Day 15). Study medication (APD371 or placebo) was administered TID on Days 1-10, and once on Day 11. Each cohort included 12 human subjects, nine of whom were administered APD371 and three of whom were administered placebo.
as §1

[10] = tested on: human CB2 receptor versus the human CB1 receptor; experiment: selectivity for the human CB2 receptor versus the human CB1 receptor
Method: In some embodiments, an agonist compound that is used in the methods described herein has selectivity for the CB2 Receptor. In some embodiments, selectivity refers to the relative in vitro potency of a compound for the CB2 receptor and another receptor. For example, in some embodiments, selectivity refers to the relative in vitro potency of a compound for the CB2 receptor versus the CB1 receptor. In some embodiments, in vitro potency is measured using a second messenger assay. In some embodiments, in vitro potency is measured using a cAMP assay. In some embodiments, selectivity is determined by comparing data generated using a β-arrestin assay. In some embodiments, selectivity is determined by comparing data generated from a GTP-yS binding assay. In some embodiments, selectivity is determined by comparing data generated from a reporter gene assay. In some embodiments, selectivity is determined by comparing data generated for a biomarker. In some embodiments, in vitro potency is quantified as EC50. In some embodiments, selectivity refers to the relative binding affinity of an agonist for the CB2 receptor and another receptor. In some embodiments, binding affinity is quantified as Ki.

CB2 receptor [11] = target: T1, CB2 receptor; experiment: CB2 receptor agonism; assay type: cell-based
Text: Other CB2 receptor agonist compounds can be identified e.g., using the Homogeneous Time-Resolved Fluorescence (HTRF®) Assay for direct cAMP measurement (Gabriel et al., ASSAY and Drug Development Technologies, 1:291-303, 2003) (see, e.g., Example 2 of WO2011/025541). Compounds can be screened for agonism of the CB2 receptor (e.g., human CB2 receptor) using the HTRF® assay for direct cAMP measurement (assay kit sold by Cisbio-US, Inc., Bedford, Mass.; Catalog #62AM4PEC) in recombinant CHO-K1 cells stably transfected with the CB2 receptor. […] The specific signal (i.e., fluorescence resonance energy transfer, FRET) is inversely proportional to the concentration of unlabeled cAMP in the standard or sample. An agonist of the CB2 receptor is detected in the HTRF® assay for direct cAMP measurement when a compound decreases cAMP concentration. […]
CB2 receptor agonist compounds can also be identified using the DiscoveRx PathHunter β-arrestin assay which measures the β-arrestin binding to the CB2 receptor upon its activation (see, e.g., Example 3 of WO2011/025541). […] Binding of β-arrestin to the activated GPCR causes the complementation of the two enzyme fragments, forming an active β-galactosidase enzyme which can be measured using the chemiluminescent PathHunter Flash Detection Kit (DiscoveRx, Fremont, Calif.: catalog #93-0001).

RPE cells = conditions: cited from earlier work
[12] = tested on: guinea pig vagus nerve preparations; conditions: in vitro; cited from earlier work
[13] = tested on: human vagus nerve preparations; conditions: in vitro; cited from earlier work
[14] = tested on: bovine nasal cartilage explants; conditions: in vitro; cited from earlier work
human skin = conditions: topical administration; cited from earlier work
EAE mouse model = conditions: in vivo; cited from earlier work
ApoE knockout mice = conditions: cited from earlier work
[15] = tested on: mouse model for allergic contact dermatitis; conditions: subcutaneous injection; cited from earlier work
[16] = 50, 100, 200 mg TID for 10 days

T1 sequence (P34972 whole entry): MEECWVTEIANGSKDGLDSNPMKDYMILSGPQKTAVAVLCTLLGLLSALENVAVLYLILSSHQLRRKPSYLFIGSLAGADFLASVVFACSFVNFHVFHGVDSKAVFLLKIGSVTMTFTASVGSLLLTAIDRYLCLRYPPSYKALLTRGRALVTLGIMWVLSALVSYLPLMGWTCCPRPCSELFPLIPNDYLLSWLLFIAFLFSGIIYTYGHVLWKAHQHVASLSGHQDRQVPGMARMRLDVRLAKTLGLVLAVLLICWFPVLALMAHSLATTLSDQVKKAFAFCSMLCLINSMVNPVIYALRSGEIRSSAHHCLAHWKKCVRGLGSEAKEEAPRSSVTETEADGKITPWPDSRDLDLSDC
rat CB2 receptor, sequence (Q9QZN9 whole entry): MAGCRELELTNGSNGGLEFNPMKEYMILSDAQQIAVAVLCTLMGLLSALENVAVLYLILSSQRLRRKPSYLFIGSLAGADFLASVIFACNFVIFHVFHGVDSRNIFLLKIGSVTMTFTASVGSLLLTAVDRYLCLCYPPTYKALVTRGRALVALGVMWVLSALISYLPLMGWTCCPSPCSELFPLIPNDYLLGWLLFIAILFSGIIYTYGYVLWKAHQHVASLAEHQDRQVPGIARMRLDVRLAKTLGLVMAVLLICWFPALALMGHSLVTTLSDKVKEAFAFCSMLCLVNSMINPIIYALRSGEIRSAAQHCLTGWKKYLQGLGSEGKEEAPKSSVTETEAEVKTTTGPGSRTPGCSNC

Molecule: COc1ccc(C(=O)c2c(C)n(CCN3CCOCC3)c3cc(I)ccc23)cc1 [AM630]
- effect on the AM1241 reversal of hypersensitivity ([1]; rat, in vivo): inhibited by treatment with the CB2-selective antagonist AM630

Molecule: CN1CCCCC1Cn1cc(C(=O)c2cc([N+](=O)[O-])ccc2I)c2ccccc21 (centres unmarked) [AM1241]
- hyperalgesia [2]: suppresses hyperalgesia
- tactile and thermal hypersensitivity ([1]; local (subcutaneous) or systemic administration): reverses tactile and thermal hypersensitivity

Molecule: CC(C)(C)[C@@H](CO)NC(=O)c1nn(-c2c[n+]([O-])ccn2)c2c1C[C@@H]1C[C@H]21 [APD371, (1aS,5aS)-2-(4-Oxy-pyrazin-2-yl)-1a,2,5,5a-tetrahydro-1H-2,3-diaza-cyclopropa[a]pentalene-4-carboxylic Acid ((S)-1-Hydroxymethyl-2,2-dimethyl-propyl)-amide]
- cardiovascular effects (preclinical animal model): Cardiovascular effects were not seen
- systolic and diastolic blood pressure compared to baseline (healthy human subjects [3]; single ascending dose): Variations were also seen
- mean change in heart rate compared to baseline (healthy human subjects [3]; single ascending dose, highest doses): increase in heart rate was seen at the highest doses; also recorded: asymptomatic mean increase in heart rate
- exposure (healthy human subjects [3]; single doses 10 mg to 400 mg): Dose-responsive exposure was observed
- tolerability (healthy human subjects [3]; single doses 10 mg to 400 mg): well tolerated
- efficacy in model of osteoarthritis pain ([4]; in vivo): sustained efficacy
- duration of in vivo efficacy following dosing ([4]; osteoarthritis pain model): maintained in vivo efficacy for four hours following dosing
- plasma concentrations ([4]; osteoarthritis pain model, following dosing): rapidly declining plasma concentrations
- efficacy in model of paclitaxel-induced neuropathic pain [5]: sustained efficacy
- internalization of the CB2 receptor into cells (CB2 receptor [6]): high level of internalization
- receptor internalization efficacy relative to CP55,940 (rat CB2 receptor): 105%
- receptor internalization efficacy relative to CP55,940 (CB2 receptor [7]): 96%
- efficacy in model of painful peripheral diabetic neuropathy [8]: sustained efficacy
- exposure (healthy human subjects [9]; [16]): Dose-responsive exposure was observed
- most common adverse events (healthy human subjects [9]; [16]): headache and nausea
- serious adverse events (healthy human subjects [9]; [16]): no serious adverse events reported
- severity of adverse events (healthy human subjects [9]; [16]): mild
- tolerability (healthy human subjects [9]; [16]): well tolerated with multiple dosing
- drug levels relative to those needed to stimulate the CB2 receptor (healthy human subjects [9]; all doses): well above those needed to stimulate the CB2 receptor
- discontinuations (healthy human subjects [9]; high-dose group): one discontinuation in the high-dose group due to an adverse event of mild thirst and somnolence
- change in blood pressure (healthy human subjects [9]; multiple ascending dose): asymptomatic reductions
- change in heart rate (healthy human subjects [9]; multiple ascending dose): asymptomatic reductions
- selectivity for the human CB2 receptor versus the human CB1 receptor [10]: > 1,000 fold
- agonist efficacy at the CB2 receptor (CB2 receptor [11]): full CB2 receptor agonist

Molecule: CCCCCCC(C)(C)c1ccc([C@@H]2C[C@H](O)CC[C@H]2CCCO)c(O)c1 [CP55,940]
- protection from oxidative damage (RPE cells): significantly protects RPE cells from oxidative damage
- capsaicin-, PGE2-, and hypertonic saline-induced depolarization [12]: reduces capsaicin-, PGE2-, and hypertonic saline-induced depolarization
- capsaicin-, PGE2-, and hypertonic saline-induced depolarization [13]: reduces capsaicin-, PGE2-, and hypertonic saline-induced depolarization

Molecule: COc1ccc2c(c1)c(CCN1CCOCC1)c(C)n2C(=O)c1cccc(Cl)c1Cl [GW405833]
- hypersensitivity to mechanical stimuli ([1]; administered systemically): significantly reverses hypersensitivity to mechanical stimuli

Molecule: CCCCCCC(C)(C)c1cc(O)c2c(c1)OC(C)(C)[C@@H]1CC=C(CO)C[C@@H]21 [HU-210]
- IL-1alpha-stimulated proteoglycan and collagen degradation [14]: significantly inhibit
- histamine-induced responses (human skin): reduces these histamine-induced responses

Molecule: CCCCCc1cc(O)c2c(c1)OC(C)(C)[C@@H]1CCC(C)=C[C@@H]21 [THC]
- severity of clinical disease (EAE mouse model): significantly inhibits the severity of clinical disease
- progression of atherosclerosis (ApoE knockout mice; mouse, in vivo): reduces the progression of atherosclerosis
- cutaneous inflammation and pruritus (itch) [15]: reduces cutaneous inflammation and the pruritus (itch)

Molecule: SR144528
- blockade of the WIN 55212-2 effect on leukocyte rolling and adhesion (EAE mouse model): blocked by the CB2-selective antagonist SR144528
- blockade of the THC effect on atherosclerosis (ApoE knockout mice; in vitro and in vivo): completely blocks this effect

Reference: patent US20190160058A1, “METHODS OF TREATMENT WITH SELECTIVE CB2 RECEPTOR AGONISTS” (Arena Pharmaceuticals, Inc., priority 2016, published 2019)
